Data published in patent US20140242093A1, “METHODS AND COMPOSITIONS FOR MODULATING THE INNATE IMMUNE RESPONSE AND/OR MYOGENESIS IN A MAMMALIAN SUBJECT” (FRED HUTCHINSON CANCER RESEARCH CENTER, priority 2011, published 2014).

System: control human primary myoblasts
Assay: Expression microarray of primary myoblasts transduced with lentivirus carrying DUX4-fl, DUX4-s or GFP
Procedure: Primary human myoblasts were collected and cultured as previously described (Snider et al., 2010). Primary myoblasts were maintained at or below 70% confluency for proliferation. For differentiation, cells were allowed to reach 95-100% confluency in growth medium. Once confluency was reached, the cells were changed to differentiation medium (F10 media supplemented with 1% horse serum, 10 μg/mL insulin, and 10 μg/mL transferrin, penicillin/streptomycin) and maintained for 4 days. Human RD cells were grown in DMEM in 10% bovine calf serum (Hyclone) and penicillin/streptomycin. The primary myoblasts were transduced with lentivirus carrying DUX-fl, DUX4- or GFP (MOI=15).
Expression microarrays were performed on the transduced cells at 24 hours after transduction as follows. […] Samples were analyzed by Illumina Human Whole Genome microarrays. Probe intensities were corrected, normalized, and summarized by the Lumi package of Bioconductor (Du et al., 2008). Differentially expressed genes were identified by the LIMMA package of Bioconductor (Wettenhall and Smyth, 2004). Gene set enrichment analysis (GSEA) was performed using the Bioconductor GOstats package (Falcon and Gentleman, 2007).

“DUX4-fl: full-length DUX4 protein (SEQ ID NO:110), expressed from lentiviral or pCS2 vectors or in vitro translated” was tested, and the “full_fc PRAMEF13” value (log2 fc vs lenti-GFP, 24 h) was 7.422, the “full_fc PRAMEF15” value (log2 fc vs lenti-GFP, 24 h) was 7 and the “full_fc PRAMEF17” value (log2 fc vs lenti-GFP, 24 h) was 4.223. The “full_fc PRAMEF20” value (log2 fc vs lenti-GFP, 24 h) was 4.795, the “full_fc RFPL1” value (log2 fc vs lenti-GFP, 24 h) was 6.264 and the “full_fc RFPL1S” value (log2 fc vs lenti-GFP, 24 h) was 8.396. For the same substance, the “full_fc RFPL2” value (log2 fc vs lenti-GFP, 24 h) was 7.293, the “full_fc RFPL3” value (log2 fc vs lenti-GFP, 24 h) was 8.144 and the “full_fc RFPL4A” value (log2 fc vs lenti-GFP, 24 h) was 4.348. For the same substance, the “full_fc RFPL4B” value (log2 fc vs lenti-GFP, 24 h) was 8.34, the “full_fc RN5S9” value (log2 fc vs lenti-GFP, 24 h) was 4.191 and the “full_fc SFRS2B” value (log2 fc vs lenti-GFP, 24 h) was 4.215. For the same substance, the “full_fc SLC34A2” value (log2 fc vs lenti-GFP, 24 h) was 5.514, the “full_fc SPRYD5” value (log2 fc vs lenti-GFP, 24 h) was 8.045 and the “full_fc THOC4” value (log2 fc vs lenti-GFP, 24 h) was 4.035. For the same substance, the “full_fc TPRX1” value (log2 fc vs lenti-GFP, 24 h) was 4.483, the “full_fc TRIM43” value (log2 fc vs lenti-GFP, 24 h) was 5.806 and the “full_fc TRIM48” value (log2 fc vs lenti-GFP, 24 h) was 7.88. For the same substance, the “full_fc TRIM49” value (log2 fc vs lenti-GFP, 24 h) was 6.551, the “full_fc TRIM53” value (log2 fc vs lenti-GFP, 24 h) was 4.778 and the “full_fc TRIM64” value (log2 fc vs lenti-GFP, 24 h) was 4.943. The “full_fc ZNF217” value (log2 fc vs lenti-GFP, 24 h) was 4.114, the “full_fc ZNF296” value (log2 fc vs lenti-GFP, 24 h) was 5.536 and the “full_fc ZNF705A” value (log2 fc vs lenti-GFP, 24 h) was 6.832. The “full_fc ZSCAN4” value (log2 fc vs lenti-GFP, 24 h) was 8.322, the “number of genes increased 32-fold or more” value (log 2fc≧5) was 72 genes and the “Log2 Fc AMACR” value (vs lenti-GFP, 24 h) was 2.7 log2. The “Log2 Fc ARIH1” value (vs lenti-GFP, 24 h) was 2.2 log2, the “Log2 Fc ARS2” value (vs lenti-GFP, 24 h) was 2.6 log2 and the “Log2 Fc CBARA1” value (vs lenti-GFP, 24 h) was 2.1 log2. The “Log2 Fc CD24” value (vs lenti-GFP, 24 h) was 2.6 log2, the “Log2 Fc CSAG3” value (vs lenti-GFP, 24 h) was 5.9 log2 and the “Log2 Fc CSE1L” value (vs lenti-GFP, 24 h) was 2.9 log2. For the same substance, the “Log2 Fc CWC15” value (vs lenti-GFP, 24 h) was 2.6 log2, the “Log2 Fc CXADR” value (vs lenti-GFP, 24 h) was 2.5 log2 and the “Log2 Fc CXCR4” value (vs lenti-GFP, 24 h) was 2.0 log2. For the same substance, the “Log2 Fc DBR1” value (vs lenti-GFP, 24 h) was 3.4 log2, the “Log2 Fc DEFB103B” value (vs lenti-GFP, 24 h) was 6.4 log2 and the “Log2 Fc FBXO33” value (vs lenti-GFP, 24 h) was 3.2 log2. The “Log2 Fc FGFR3” value (vs lenti-GFP, 24 h) was 3.1 log2, the “Log2 Fc FLJ45337” value (vs lenti-GFP, 24 h) was 3.7 log2 and the “Log2 Fc GTF2F1” value (vs lenti-GFP, 24 h) was 3.2 log2. The “Log2 Fc HNRNPCL1” value (vs lenti-GFP, 24 h) was 3.5 log2, the “Log2 Fc HOXB2” value (vs lenti-GFP, 24 h) was 2.2 log2 and the “Log2 Fc HSPA2” value (vs lenti-GFP, 24 h) was 3.7 log2. The “Log2 Fc ID2” value (vs lenti-GFP, 24 h) was 2.3 log2, the “Log2 Fc IFRD1” value (vs lenti-GFP, 24 h) was 3.0 log2 and the “Log2 Fc JUP” value (vs lenti-GFP, 24 h) was 3.2 log2. The “Log2 Fc KHDC1L” value (vs lenti-GFP, 24 h) was 8.0 log2, the “Log2 Fc MBD3L2” value (vs lenti-GFP, 24 h) was 7.6 log2 and the “Log2 Fc MED26” value (vs lenti-GFP, 24 h) was 2.1 log2. For the same substance, the “Log2 Fc MGC10997” value (vs lenti-GFP, 24 h) was 2.4 log2, the “Log2 Fc PABPN1” value (vs lenti-GFP, 24 h) was 2.6 log2 and the “Log2 Fc PELI1” value (vs lenti-GFP, 24 h) was 2.9 log2. The “Log2 Fc PNMA6B” value (vs lenti-GFP, 24 h) was 3.6 log2, the “Log2 Fc PRAMEF1” value (vs lenti-GFP, 24 h) was 8.1 log2 and the “Log2 Fc PVRL3” value (vs lenti-GFP, 24 h) was 2.2 log2. The “Log2 Fc RMRP” value (vs lenti-GFP, 24 h) was 2.3 log2, the “Log2 Fc RNGTT” value (vs lenti-GFP, 24 h) was 2.0 log2 and the “Log2 Fc RPPH1” value (vs lenti-GFP, 24 h) was 2.0 log2. For the same substance, the “Log2 Fc RRN3” value (vs lenti-GFP, 24 h) was 2.1 log2, the “Log2 Fc SFRS2B” value (vs lenti-GFP, 24 h) was 4.2 log2 and the “Log2 Fc SFRS17A” value (vs lenti-GFP, 24 h) was 2.5 log2. The “Log2 Fc SIAH1” value (vs lenti-GFP, 24 h) was 3.7 log2, the “Log2 Fc SLC2A14” value (vs lenti-GFP, 24 h) was 2.4 log2 and the “Log2 Fc SLC34A2” value (vs lenti-GFP, 24 h) was 5.5 log2. The “Log2 Fc SNIP1” value (vs lenti-GFP, 24 h) was 2.1 log2, the “Log2 Fc SON” value (vs lenti-GFP, 24 h) was 2.1 log2 and the “Log2 Fc SPRYD5” value (vs lenti-GFP, 24 h) was 8.0 log2. For the same substance, the “Log2 Fc SPTY2D1” value (vs lenti-GFP, 24 h) was 3.3 log2, the “Log2 Fc TFIP11” value (vs lenti-GFP, 24 h) was 3.2 log2 and the “Log2 Fc THOC4” value (vs lenti-GFP, 24 h) was 4.0 log2. For the same substance, the “Log2 Fc TPRX1” value (vs lenti-GFP, 24 h) was 4.5 log2, the “Log2 Fc TRIM23” value (vs lenti-GFP, 24 h) was 2.2 log2 and the “Log2 Fc TRIM43” value (vs lenti-GFP, 24 h) was 5.8 log2. For the same substance, the “Log2 Fc USP29” value (vs lenti-GFP, 24 h) was 2.6 log2, the “Log2 Fc ZNF217” value (vs lenti-GFP, 24 h) was 4.1 log2 and the “Log2 Fc ZNF705A” value (vs lenti-GFP, 24 h) was 6.8 log2. The “Log2 Fc ZNHIT6” value (vs lenti-GFP, 24 h) was 3.5 log2, the “Log2 Fc ZSCAN2” value (vs lenti-GFP, 24 h) was 2.2 log2 and the “Log2 Fc ZSCAN4” value (vs lenti-GFP, 24 h) was 8.3 log2.
